Values quoted from earlier work as cited in patent publication US20220062479A1, “Disinfection Bomb” (priority 2020, published 2022).

Experiments:
[1] = test system: Pseudomonas aeruginosa; conditions: it has been shown
[2] = test system: Staphylococcus aureus; conditions: by way of background
[3] = test system: E. coli; conditions: it has been shown
[4] = test system: Streptococcus pyogenes; conditions: by way of background

Compound: CCO [ethanol]
- contact time that allows the ethanol to kill Pseudomonas aeruginosa [1]: 10 s
- contact time to kill Staphylococcus aureus [2]: at least 10 seconds
- contact time that allows the ethanol to kill E. coli [3]: 10 s
- contact time to kill Streptococcus pyogenes [4]: at least 10 seconds
